Test results taken from patent publication US20170315136A9, “BIOMARKER ASSAY OF NEUROLOGICAL CONDITION” (priority 2009, published 2017).

Experiments:
[1] = system: Mouse, rat cortical or hippocampal primary neurons; assay: In vitro drug candidate screening for neurotoxicity (ELISA of cell lysates); format: cell-based; settings: primary neurons 21 DIV; Glutamate 0.01 to 1000 μM for 30 minutes, H2O2 0.001 to 1000 μM for 24 hours; lysates by ELISA
Procedure: In vitro drug candidate screening for neurotoxicity. Mouse, rat cortical or hippocampal primary neurons are cultured for 21 DIV, and the dose dependent responses of drugs are investigated. Cultured cells are exposed to various concentrations of: Glutamate (0.01 to 1000 μM) in 10 μM glycine both in HBSS; B) 0.01 to 100 μM Kainate in culture media; C) H2O2 (0.001 to 1000 μM) in culture media; C) Zinc (0.01 to 1000 μM) in culture media; D) U0126 (0.001 to 100 μM) in culture media; and E) and equal volume of culture media as a control. Glutamate treatment is performed for 30 minutes after which the cells are washed and the HBSS is replaced with culture media and analyzed. The remaining candidates are treated for 24 hours and analyzed. The levels of intracellular UCH-L1 and SBDP 145 are analyzed following cell lysis and screening of the lysates by ELISA using anti-UCH-L1 and SBDP 145 specific antibodies. The levels of UCH-L1 are increased following exposure particularly to Glutamate and H2O2.

[2] = system: Female Sprague-Dawley rats; settings: for GFAP levels / SBDP150 levels / UCH-L1 levels: biofluid, 30, 60, 90, 120 minutes following dosing
Procedure: Acute oral In vivo drug candidate screening for neurotoxicity. […] A total of four to eight animals of are used for each dose level investigated.
At 30, 60, 90, and 120 minutes following dosing, the rats are sacrificed by decapitation and blood is obtained by cardiac puncture. The levels of biofluid UCH-L1 and SBDP 150 and GFAP are analyzed by sandwich ELISA or western blot by using UCH-L1 and SBDP 150 and GFAP specific antibodies.

Structure (SMILES)	GFAP levels [2]	SBDP150 levels [2]	UCH-L1 levels [2]	further results
OO [H2O2]				levels of intracellular UCH-L1 [1]: increased
N.N.[Cl][Pt][Cl] [Cisplatin, cisplatin]	increase	increase	increase	
CN[C@@H](C)Cc1ccccc1 [methamphetamine]				CSF concentration of GFAP ([2]; rat, in vivo): increase; CSF concentration of SBDP 150 ([2]; rat, in vivo): increase; CSF concentration of UCH-L1 ([2]; rat, in vivo): increase
C=C(C)[C@H]1CN[C@H](C(=O)O)[C@H]1CC(=O)O [kainic acid]	increase	increase	increase	
N[C@@H](CCC(=O)O)C(=O)O [Glutamate]				levels of intracellular UCH-L1 [1]: increased
CN1CC=C(c2ccccc2)CC1 [MPTP]	increase	increase	increase	
C[C@]12N[C@H](Cc3ccccc31)c1ccccc12 [dizocilpine]	increase	increase	increase	
